Holding throughout (format): binding
One assay has as its target T1, 14-3-3ζ (Homo sapiens, UniProt P63104).
T1 construct: Both full-length 14-3-3ζ and 14-3-3ζΔC12 were expressed as N-terminally His-tagged protein; His tag (TEV-cleavable) (N, cleaved yes); made in house; host or cells: Escherichia coli BL21 (DE3) pLysS
T1 sequence (P63104 1-245): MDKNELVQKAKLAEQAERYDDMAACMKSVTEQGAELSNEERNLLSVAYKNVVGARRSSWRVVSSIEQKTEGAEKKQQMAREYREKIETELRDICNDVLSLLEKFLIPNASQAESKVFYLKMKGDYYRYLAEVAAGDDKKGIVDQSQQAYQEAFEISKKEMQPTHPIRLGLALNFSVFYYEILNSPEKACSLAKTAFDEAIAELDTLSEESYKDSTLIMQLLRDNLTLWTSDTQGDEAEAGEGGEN
The experiment in a line: ITC of Cby peptides titrated into 14-3-3ζ. The settings on record: for n (binding stoichiometry of monomeric 14-3-3 and Cby peptide): 25°C; for T∆S / ∆G / ∆H / TΔS / ΔG / ΔH: 298.15 K; for T∆S / ∆G / ∆H: duplicate set (S1 Table); for TΔS / ΔG / ΔH: pH 6.8, Table 1 set of duplicate experiments; for Kd: 25°C (298.15 K). From the text:
(§1) The human14-3-3ζ ORF purchased from GeneCopoeia was transferred into Gateway pDEST17 vector (Invitrogen). The 14-3-3ζΔC12, where the 12 C-terminal residues were deleted, was then generated from the full-length construct using QuikChange II Site-Directed Mutagenesis Kit (Strategene). Both full-length 14-3-3ζ and 14-3-3ζΔC12 were expressed as N-terminally His-tagged protein in Escherichia coli (E. coli) BL21 (DE3) pLysS in M9 medium. For unlabeled protein, protein expression was induced at an O.D.600 of 0.9 by adding 0.75 mM IPTG at 18°C for 24 h. The ^15N, ^13C, ^2H labeled 14-3-3ζΔC12 was produced by growing E. coli in deuterated M9 medium. Cells adapted to 70% D2O were used to inoculate a 1 L culture of M9 prepared in 100% D2O. Cells were grown at 37°C and overexpression was induced at an O.D.600 of 0.6 with 0.75 mM IPTG. After a 60-h induction at 18°C, the cells were harvested. All 14-3-3ζ constructs used in this study were purified from the crude lysate by affinity chromatography using Ni Sepharose Fast Flow beads (Amersham Biosciences). The tag was then cleaved by overnight incubation with His-tagged tobacco etch virus (TEV) protease at 25°C. The cleaved 14-3-3ζ, which retains an N-terminal glycine, was purified by passing the mixture through Ni Sepharose Fast Flow beads. The final yields for the 14-3-3ζ proteins were ~50 mg per L of M9 media (including deuterated media).
(§2) The Cby peptides used in this study were purchased from GenScript USA Inc. and the TUFTS University Core Facility. From GenScript USA Inc.: Cby 13-mer (NH2-^12KTPPRKSASLSNL^24-COOH), Cby S20D 13-mer (NH2-^12KTPPRKSADLSNL^24-COOH), Cby S20E 13-mer (NH2-^12KTPPRKSAELSNL^24-COOH), pCby 13-mer (NH2-^12KTPPRKSApSLSNL^24-COOH) and pCby 18-mer ((NH2-^12KTPPRKSApSLSNLHSLDR^29-COOH). From TUFTS: pCby 7-mer (Ac-^16RKSApSLS^22-NH2), pCby 11-mer (NH2-^12KTPPRKSApSLS^22-NH2), pCby S22P 7-mer (Ac-^16RKSApSLP^22-NH2), pCby S22P 13-mer (NH2-^12KTPPRKSApSLPNL^24-COOH) and pCby S22P 18-mer ([…]). Peptides were dissolved and dialyzed in 50 mM sodium phosphate, 100 mM NaCl at pH 6.8 for ITC and NMR experiments.
(§3) ITC experiments were performed on a VP-ITC instrument (MicroCal) at 25°C. The protein and peptide samples were dialyzed into a buffer containing 50 mM sodium phosphate, 100 mM NaCl, 1 mM DTT at pH 6.8 and degassed before the experiments. In a typical experiment, 5 μL aliquots of ~1–2 mM peptide were titrated stepwise into the 1.4 mL sample cell containing ~100–200 μM 14-3-3ζ. The association constant (Ka), molar binding stoichiometry (n) and the binding enthalpy (ΔH), entropy (ΔS) and Gibbs free energy (ΔG) were determined by fitting the binding isotherm to a one-site model with MicroCal Origin7 software. All ITC experiments were performed in duplicate. A duplicate set of thermodynamic derived binding parameters are found in S1 Table. Peptide and protein concentrations were determined from amino acid analysis (Amino Acid Analysis Facility, SickKids, Toronto, ON).

For the next assay, the target named is T2, 14-3-3ζ K49A (Homo sapiens, UniProt P63104, K49A).
T2 construct: His tag (TEV-cleavable) (N, cleaved yes); made in house
T2 sequence (P63104 1-245 K49A): T1 sequence (P63104 1-245) with K49A
The experiment in a line: ITC of Cby peptides titrated into 14-3-3ζ K49A. The settings on record: for n (binding stoichiometry of monomeric 14-3-3 and Cby peptide): 25°C, pH 6.8.
Excerpt: In numerous crystal structures of 14-3-3 proteins in complex with phosphorylated S/T peptides, the conserved K49 (numbering refers to the ζ isoform) side-chain is observed forming a hydrogen bond with the phosphate group on pS/pT (illustrated in S3 Fig with an elucidated 14-3-3ζ/Raf1 structure). With Cby’s S22 side-chain juxtaposed between 14-3-3ζ residues K49 and R56, the K49 side-chain is sterically hindered from contacting pS20. As such, we speculated that the increases in binding affinity to 14-3-3ζ observed for the S22P mutant peptides might be the result of the favorable contacts between K49 and pS20 facilitated by the proline-induced conformational changes. To test this, a K49A mutation was introduced into 14-3-3ζ and ITC titrations were performed with 18-mer WT and S22P Cby peptides.
as §2, §3

In the next assay the target is T3, 14-3-3ζΔC12 (Homo sapiens, UniProt P63104).
T3 construct: The 14-3-3ζΔC12, where the 12 C-terminal residues were deleted, was then generated from the full-length construct; His tag (TEV-cleavable) (N, cleaved yes); made in house; host or cells: Escherichia coli BL21 (DE3) pLysS
T3 sequence (P63104 1-233 limits assumed): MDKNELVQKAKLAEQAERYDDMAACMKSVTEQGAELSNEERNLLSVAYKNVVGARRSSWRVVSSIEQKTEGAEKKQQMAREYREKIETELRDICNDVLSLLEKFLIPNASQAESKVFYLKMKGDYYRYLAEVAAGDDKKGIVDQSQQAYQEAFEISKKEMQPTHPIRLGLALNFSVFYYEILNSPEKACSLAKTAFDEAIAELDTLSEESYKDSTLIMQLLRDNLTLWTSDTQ
The assay is described as follows: ITC of Cby peptides titrated into 14-3-3ζΔC12. The settings on record: 14-3-3ζΔC12 in ITC cell; for n (binding stoichiometry of monomeric 14-3-3 and Cby peptide): 25°C.
Excerpt: as §1, §2, §3

Where [1] appears, read: 50 mM sodium phosphate, 100 mM NaCl, 1 mM DTT, pH 6.8, one-site model, Table 1 set of duplicate experiments.
Setting [2] is: pH 6.8, duplicate set (S1 Table).
The mark [3] stands for this setting: 14-3-3ζ K49A in ITC cell, 298.15 K, Table 1 set of duplicate experiments.
The mark [4] stands for this setting: 14-3-3ζ K49A in ITC cell, 298.15 K, duplicate set (S1 Table).
Setting [5] is: 298.15 K, Table 1 set of duplicate experiments.
The mark [6] stands for this setting: 298.15 K, duplicate set (S1 Table).

Residue numbers refer to the chain shown, from its start. Square brackets hold non-standard residues; d marks the D form. Peptide text beside a SMILES is read from it. pS = N[C@@H](COP(=O)(O)O)C(=O)O

For orientation: Kd means the free concentration of one partner at which half of the binding sites on the other are occupied at equilibrium, for simple one-to-one binding. A high value points to lower affinity.

On to `CC(C)C[C@H](NC(=O)[C@H](CO)NC(=O)[C@H](Cc1c[nH]cn1)NC(=O)[C@H](CC(C)C)NC(=O)[C@H](CC(N)=O)NC(=O)[C@@H]1CCCN1C(=O)[C@H](CC(C)C)NC(=O)[C@H](COP(=O)(O)O)NC(=O)[C@H](C)NC(=O)[C@H](CO)NC(=O)[C@H](CCCCN)NC(=O)[C@H](CCCNC(=N)N)NC(=O)[C@@H]1CCCN1C(=O)[C@@H]1CCCN1C(=O)[C@@H](NC(=O)[C@@H](N)CCCCN)[C@@H](C)O)C(=O)N[C@@H](CC(=O)O)C(=O)N[C@@H](CCCNC(=N)N)C(=O)O` [Cby 18-mer S22P] (H-KTPPRKSA[pS]LPNLHSLDR-OH), for which, at 14-3-3ζ, the “fold tighter binding than the S22P 7-mer” value is listed as ~ 9 fold, the “T∆S” value turned out to be 0.79 kcal/mol, the “∆G” value is -8.76 ± 0.02 kcal/mol and the “∆H” value was -7.97 ± 0.01 kcal/mol. Besides, on 14-3-3ζ, the TΔS is given as 0.76 kcal/mol, the ΔG is -8.79 ± 0.02 kcal/mol and the ΔH is -8.03 ± 0.02 kcal/mol. On 14-3-3ζ (setting [1]), the “n (binding stoichiometry of monomeric 14-3-3 and Cby peptide)” value worked out at 1.05. The “n (binding stoichiometry of monomeric 14-3-3 and Cby peptide)” value at 14-3-3ζ (setting [2]) was 1.08. For the same compound, on 14-3-3ζ K49A (14-3-3ζ K49A in ITC cell, Table 1 set of duplicate experiments), the “n (binding stoichiometry of monomeric 14-3-3 and Cby peptide)” value is 1.07. In addition, the “n (binding stoichiometry of monomeric 14-3-3 and Cby peptide)” value at 14-3-3ζ K49A (14-3-3ζ K49A in ITC cell, duplicate set (S1 Table)) was determined as 0.97. At 14-3-3ζ K49A (setting [3]), the TΔS came out at 0.67 kcal/mol, the ΔG is given as -7.80 ± 0.06 kcal/mol and the ΔH is recorded as -7.13 ± 0.03 kcal/mol. Also, on 14-3-3ζ K49A (setting [4]), the “T∆S” value turned out to be 1.17 kcal/mol, the “∆G” value is -7.84 ± 0.03 kcal/mol and the “∆H” value is listed as -6.67 ± 0.04 kcal/mol. The “ΔΔG of binding, 14-3-3ζ K49A compared to WT 14-3-3ζ” value on 14-3-3ζ K49A (ITC, 18-mer peptides) was ~ 1.0 kcal/mol. At 14-3-3ζ K49A (ITC, versus WT 14-3-3ζ), the “effect of 14-3-3ζ K49A mutation on binding affinity (fold reduction)” value was ~ 5 fold.
Take `CC(C)C[C@H](NC(=O)[C@H](CC(N)=O)NC(=O)[C@H](CO)NC(=O)[C@H](CC(C)C)NC(=O)[C@H](COP(=O)(O)O)NC(=O)[C@H](C)NC(=O)[C@H](CO)NC(=O)[C@H](CCCCN)NC(=O)[C@H](CCCNC(=N)N)NC(=O)[C@@H]1CCCN1C(=O)[C@@H]1CCCN1C(=O)[C@@H](NC(=O)[C@@H](N)CCCCN)[C@@H](C)O)C(=O)O` [Cby 13-mer] (H-KTPPRKSA[pS]LSNL-OH): the Kd at 14-3-3ζ (50 mM sodium phosphate, 100 mM NaCl, 1 mM DTT, pH 6.8, duplicate set (S1 Table)) was determined as 12.8 ± 0.5 µM; on 14-3-3ζ (setting [1]), 14.5 ± 0.6 µM; on 14-3-3ζΔC12 (298.15 K, pH 6.8, duplicate set (S1 Table)), 14.5 ± 0.6 µM. The “n (binding stoichiometry of monomeric 14-3-3 and Cby peptide)” value came to 1.00 on 14-3-3ζ (setting [1]); 1.07 on 14-3-3ζ (setting [2]); 0.99 at 14-3-3ζΔC12 (pH 6.8, Table 1 set of duplicate experiments); 1.06 at 14-3-3ζΔC12 (setting [2]). The “T∆S” value turned out to be 4.07 kcal/mol on 14-3-3ζ and 4.52 kcal/mol at 14-3-3ζΔC12 (setting [6]). Further, the “∆G” value at 14-3-3ζ is -6.67 ± 0.02 kcal/mol; on 14-3-3ζΔC12 (setting [6]) it was -6.60 ± 0.02 kcal/mol. The “∆H” value on 14-3-3ζ is listed as -2.60 ± 0.03 kcal/mol; at 14-3-3ζΔC12 (setting [6]), -2.08 ± 0.03 kcal/mol. The TΔS at 14-3-3ζ was 3.97 kcal/mol; at 14-3-3ζΔC12 (setting [5]) it was 4.50 kcal/mol. In addition, the ΔG at 14-3-3ζ is -6.60 ± 0.02 kcal/mol; at 14-3-3ζΔC12 (setting [5]), -6.58 ± 0.04 kcal/mol. Also, the ΔH at 14-3-3ζ was -2.63 ± 0.02 kcal/mol; at 14-3-3ζΔC12 (setting [5]), -2.08 ± 0.03 kcal/mol.

Source of the values: paper PMC4409382, “Structural Analysis of the 14-3-3ζ/Chibby Interaction Involved in Wnt/β-Catenin Signaling” (PLoS ONE, 2015).
